Measurements published in the NIST ThermoML archive (doi:10.1016/j.fluid.2016.10.026).
Numbers after ± are expanded uncertainties.

Experiment: refractive index (Na D-line) (dimensionless)
Details: 101 kPa, Liquid, Standard Abbe refractometry

CC(=O)c1cccs1 [2-acetylthiophene]
Details	refractive index
283.15 K	1.5705 ± 0.0003
285.65 K	1.5692 ± 0.0003
288.15 K	1.568 ± 0.0003
290.65 K	1.567 ± 0.0003
293.15 K	1.5658 ± 0.0003
295.65 K	1.5646 ± 0.0003
298.15 K	1.5633 ± 0.0003
300.65 K	1.5622 ± 0.0003
303.15 K	1.5609 ± 0.0003
305.65 K	1.5599 ± 0.0003
308.15 K	1.5586 ± 0.0003
310.65 K	1.5573 ± 0.0003
313.15 K	1.5562 ± 0.0003
315.65 K	1.555 ± 0.0003
318.15 K	1.5538 ± 0.0003
320.65 K	1.5526 ± 0.0003
323.15 K	1.5514 ± 0.0003
325.65 K	1.5502 ± 0.0003
328.15 K	1.549 ± 0.0003
330.65 K	1.548 ± 0.0003
333.15 K	1.5468 ± 0.0003
335.65 K	1.5455 ± 0.0003
338.15 K	1.5443 ± 0.0003
